Data taken from ChEMBL document CHEMBL1201862, “PubChem BioAssay data set” (2004).
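Cells were grown in 96-well plates and exposed to each compound for 48 hours at five concentrations; endpoints were interpolated linearly between bracketing concentrations, or set to the highest concentration if not reached. Abbreviation: GI50, concentration required for 50% inhibition of growth.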 The source made the active and inactive calls. No stated cut-off is given here; in the data, active = GI50 up to about 1.1 µM and inactive = higher. *1 amine or outer side, *2 acyl side, *3 side chain or, on linkers, in order; H or OH if unused. Where a SMILES comes first, the peptide text is derived from it. Bridges are numbered along the chain shown (N, C = ends). [ ]: non-standard residue; d: D form. ξ: configuration not given here. X10 = CCC(C)C(N[*:1])C(O)CC(=O)O[C@H](C(=O)C(C)C(=O)[*:2])C(C)C; NMeY = CN[C@@H](Cc1ccc(O)cc1)C(=O)O; ξNMeL = CNC(CC(C)C)C(=O)O; ξT = CC(O)C(N)C(=O)O

Assays:
Assay in all cases: NCI anticancer screen, dose series, 48 h
[1] = test system: SF-268
[2] = test system: HT-29
[3] = test system: ACHN
[4] = test system: HCC 2998
[5] = test system: SF-295
[6] = test system: NCI-H460
[7] = test system: Malme-3M
[8] = test system: UACC-62
[9] = test system: EKVX
[10] = test system: BT-549
[11] = test system: Hs-578T
[12] = test system: CCRF-CEM
[13] = test system: MDA-MB-435
[14] = test system: MCF7
[15] = test system: TK-10
[16] = test system: SK-MEL-28
[17] = test system: U-251
[18] = test system: NCI-H23
[19] = test system: CAKI-1
[20] = test system: DU-145

Structure (SMILES) | GI50 [1] | GI50 [2] | GI50 [3] | GI50 [4] | GI50 [5] | GI50 [6] | GI50 [7] | GI50 [8] | GI50 [9] | GI50 [10] | GI50 [11] | GI50 [12] | GI50 [13] | GI50 [14] | GI50 [15] | GI50 [16] | GI50 [17] | GI50 [18] | GI50 [19] | GI50 [20]
COc1ccc2c(cnc3c4cc(OC)c(OC)cc4ccc23)c1 | > 100 µM (inactive) | > 100 µM (inactive) | > 100 µM (inactive) | > 100 µM (inactive) | > 100 µM (inactive) | > 100 µM (inactive) | > 100 µM (inactive) | > 100 µM (inactive) | > 100 µM (inactive) | > 100 µM (inactive) | > 100 µM (inactive) | > 100 µM (inactive) | > 100 µM (inactive) | > 100 µM (inactive) | > 100 µM (inactive) | > 100 µM (inactive) | > 100 µM (inactive) | > 100 µM (inactive) | > 100 µM (inactive) | > 100 µM (inactive)
CC(C)=CCC[C@@H](C)C1=C(O)C(O)C(C)=C2N=C(c3ccccc3)C(=O)OC21 (stereo not given in full) | 1.53 µM (inactive) | 6.81 µM (inactive) | 2.16 µM (inactive) | 6.62 µM (inactive) | 2.42 µM (inactive) | 1.19 µM (inactive) | 1.14 µM (inactive) | 1.07 µM (active) | 8.85 µM (inactive) | 2.15 µM (inactive) | 1.87 µM (inactive) | 2.4 µM (inactive) | 3.18 µM (inactive) | 1.21 µM (inactive) | 1.9 µM (inactive) | 3.07 µM (inactive) | 1.57 µM (inactive) | 0.726 µM (active) | 2.39 µM (inactive) | 4.36 µM (inactive)
OC(C1CCCCCCCCCC1)C(O)C1CCCCCCCCCC1 (stereo not given) | > 100 µM (inactive) | > 100 µM (inactive) | > 100 µM (inactive) | > 100 µM (inactive) | > 100 µM (inactive) | > 100 µM (inactive) | > 100 µM (inactive) | > 100 µM (inactive) | > 100 µM (inactive) | > 100 µM (inactive) | > 100 µM (inactive) | > 100 µM (inactive) | > 100 µM (inactive) | > 100 µM (inactive) | > 100 µM (inactive) | > 100 µM (inactive) | > 100 µM (inactive) | 43.2 µM (inactive) | > 100 µM (inactive) | > 100 µM (inactive)
O=C1/C(=C/c2ccc(O)cc2)CC/C1=C\c1ccc(O)cc1 | > 95.1 µM (inactive) | > 100 µM (inactive) | 6.31 µM (inactive) | > 100 µM (inactive) | > 96.4 µM (inactive) | 44.7 µM (inactive) | > 72.6 µM (inactive) | 13.3 µM (inactive) | 99.8 µM (inactive) | > 100 µM (inactive) | > 100 µM (inactive) | 1.52 µM (inactive) | > 100 µM (inactive) | > 100 µM (inactive) | > 100 µM (inactive) | > 100 µM (inactive) | 53.1 µM (inactive) | > 100 µM (inactive) | 34.5 µM (inactive) | > 100 µM (inactive)
COc1ccc2nc3ccc(OC)cc3c([S+]([O-])CCCl)c2c1 (stereo not given) | 6.76 µM (inactive) | 2.04 µM (inactive) | 2.18 µM (inactive) | 23.2 µM (inactive) | 22.2 µM (inactive) | 26.4 µM (inactive) | 1.69 µM (inactive) | 15.8 µM (inactive) | 10.5 µM (inactive) | 15.1 µM (inactive) | 2.24 µM (inactive) | 2.42 µM (inactive) | 3.73 µM (inactive) | 2.31 µM (inactive) | 3.81 µM (inactive) | 3.73 µM (inactive) | 14.5 µM (inactive) | 4.26 µM (inactive) | 2.62 µM (inactive) | 1.99 µM (inactive)
COc1cc(Oc2nc3c(N)cc(C(F)(F)F)cc3nc2-c2ccccc2)cc(OC)c1OC | 4.66 µM (inactive) | 1.49 µM (inactive) | 4.55 µM (inactive) | 5.36 µM (inactive) | 1.95 µM (inactive) | 4.14 µM (inactive) | 0.869 µM (active) | 1.66 µM (inactive) | 13.1 µM (inactive) | 4.03 µM (inactive) | 3.69 µM (inactive) | 4.9 µM (inactive) | 0.445 µM (active) | 3.17 µM (inactive) | 26.1 µM (inactive) | 14.8 µM (inactive) | 5.9 µM (inactive) | 2.82 µM (inactive) | 3.98 µM (inactive) | 8.55 µM (inactive)
COc1ccc(CCN2CCN(CCCc3ccccc3)CC2)cc1 | > 100 µM (inactive) | 33.5 µM (inactive) | > 100 µM (inactive) | 69.3 µM (inactive) | > 100 µM (inactive) | 84.5 µM (inactive) | > 100 µM (inactive) | > 100 µM (inactive) | > 100 µM (inactive) | 70.5 µM (inactive) | > 100 µM (inactive) | > 100 µM (inactive) | > 100 µM (inactive) | > 100 µM (inactive) | 64.4 µM (inactive) | > 100 µM (inactive) | > 100 µM (inactive) | 64.3 µM (inactive) | > 100 µM (inactive) | > 100 µM (inactive)
CCC(C)C1NC(=O)C(NC(=O)C(CC(C)C)N(C)C(=O)[C@@H]2CCCN2)C(C)OC(=O)[C@H](Cc2ccc(OC)cc2)N(C)C(=O)[C@@H]2CCCN2C(=O)[C@H](CC(C)C)NC(=O)C(C)C(=O)[C@H](C(C)C)OC(=O)CC1O (stereo not given in full) (H-P[ξNMeL][ξT][X10]LP[NMeY](Me); ester 3-C) | 0.000267 µM (active) | 0.000195 µM (active) | 0.00234 µM (active) | 0.000438 µM (active) | 0.00144 µM (active) | 0.000249 µM (active) | 0.000317 µM (active) | < 0.0001 µM (active) | < 0.01 µM (active) | 0.00156 µM (active) | < 0.01 µM (active) | 0.000493 µM (active) | 0.00047 µM (active) | < 0.0001 µM (active) | 0.00355 µM (active) | 0.00014 µM (active) | < 0.0001 µM (active) | 0.000258 µM (active) | 0.00869 µM (active) | 0.00227 µM (active)
COc1cccc(C(=O)N[C@@H]2[C@H](O)[C@@H](CO)O[C@H]2n2cnc3c(N)ncnc32)c1 | > 100 µM (inactive) | > 100 µM (inactive) | > 100 µM (inactive) | > 100 µM (inactive) | > 100 µM (inactive) | > 100 µM (inactive) | > 100 µM (inactive) | > 100 µM (inactive) | > 100 µM (inactive) | > 100 µM (inactive) | > 100 µM (inactive) | > 100 µM (inactive) | > 100 µM (inactive) | > 100 µM (inactive) | > 100 µM (inactive) | > 100 µM (inactive) | > 100 µM (inactive) | > 100 µM (inactive) | > 100 µM (inactive) | > 100 µM (inactive)
O=C1C=CC(=C(c2ccccc2)c2ccc(O)cc2)C=C1 | 20 µM (inactive) | 20.7 µM (inactive) | 19.4 µM (inactive) | 31.1 µM (inactive) | 19.4 µM (inactive) | 17.3 µM (inactive) | 13.6 µM (inactive) | 14.1 µM (inactive) | 13.7 µM (inactive) | 6.03 µM (inactive) | 16.7 µM (inactive) | 1.16 µM (inactive) | 15.7 µM (inactive) | 13.4 µM (inactive) | 19.2 µM (inactive) | 16.1 µM (inactive) | 12.4 µM (inactive) | 18.7 µM (inactive) | 17.3 µM (inactive) | 17.4 µM (inactive)
Cc1ccsc1C(=S)Nc1ccc(Cl)c(/C=N/OC(C)C)c1 | 86.3 µM (inactive) | 27.5 µM (inactive) | 25.2 µM (inactive) | 22.9 µM (inactive) | 30.1 µM (inactive) | 32.7 µM (inactive) | 35.1 µM (inactive) | 64.1 µM (inactive) | 22.9 µM (inactive) | 67.9 µM (inactive) | 45.8 µM (inactive) | 38.1 µM (inactive) | 49.3 µM (inactive) | 15.6 µM (inactive) | 65.3 µM (inactive) | 67.8 µM (inactive) | 36.6 µM (inactive) | 20.1 µM (inactive) | 46.3 µM (inactive) | 92.5 µM (inactive)
COc1cccc(N2C(=O)C3c4[nH]c5ccc(C)cc5c4C4CCC(C)CC4C3C2=O)c1 (stereo not given) | 47.2 µM (inactive) | > 100 µM (inactive) | > 100 µM (inactive) | > 100 µM (inactive) | 35 µM (inactive) | > 100 µM (inactive) | > 100 µM (inactive) | 30.3 µM (inactive) | 32.6 µM (inactive) | 76 µM (inactive) | 23.7 µM (inactive) | 31.7 µM (inactive) | > 100 µM (inactive) | > 100 µM (inactive) | 36.1 µM (inactive) | > 100 µM (inactive) | 51.3 µM (inactive) | > 100 µM (inactive) | 39.5 µM (inactive) | > 100 µM (inactive)
C=C(CN(C)C)C(=O)c1cc(C)ccc1C | 20.3 µM (inactive) | 11 µM (inactive) | 3.54 µM (inactive) | 15.8 µM (inactive) | 16.7 µM (inactive) | 19.9 µM (inactive) | 2.5 µM (inactive) | 10.5 µM (inactive) | 26.2 µM (inactive) | 10.2 µM (inactive) | 28.7 µM (inactive) | 0.345 µM (active) | 8.45 µM (inactive) | 2.96 µM (inactive) | 8.95 µM (inactive) | 9.1 µM (inactive) | 15.7 µM (inactive) | 11.4 µM (inactive) | 4.39 µM (inactive) | 14.4 µM (inactive)
